Experimental data taken from PubChem BioAssay (NCI).
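At the GI50, growth is halved. TGI: concentration producing complete growth inhibition.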

Assays:
Assay in all cases: inhibition of tumour cell growth, NCI panel, 384-well format
HOP-62 NSCLC = test system: HOP-62 NSCLC
MALME-3M melanoma = test system: MALME-3M melanoma
SN12C renal = test system: SN12C renal
OVCAR-4 ovarian = test system: OVCAR-4 ovarian
ACHN renal = test system: ACHN renal
SK-MEL-28 melanoma = test system: SK-MEL-28 melanoma
UACC-62 melanoma = test system: UACC-62 melanoma
EKVX NSCLC = test system: EKVX NSCLC
SF-295 CNS = test system: SF-295 CNS
HOP-92 NSCLC = test system: HOP-92 NSCLC
NCI/ADR-RES ovarian = test system: NCI/ADR-RES ovarian
IGROV1 ovarian = test system: IGROV1 ovarian
LOX IMVI melanoma = test system: LOX IMVI melanoma
SNB-75 CNS = test system: SNB-75 CNS
TK-10 renal = test system: TK-10 renal
COLO 205 colon = test system: COLO 205 colon
HT29 colon = test system: HT29 colon
NCI-H23 lung = test system: NCI-H23 lung
UO-31 renal = test system: UO-31 renal
NCI-H226 lung = test system: NCI-H226 lung
CAKI-1 renal = test system: CAKI-1 renal
KM12 colon = test system: KM12 colon
OVCAR-5 ovarian = test system: OVCAR-5 ovarian
M14 melanoma = test system: M14 melanoma
A498 renal = test system: A498 renal
786-0 renal = test system: 786-0 renal
HCT-15 colon = test system: HCT-15 colon
DU-145 prostate = test system: DU-145 prostate
UACC-257 melanoma = test system: UACC-257 melanoma

## O=C(c1c(F)ccc(NS(=O)(=O)N2CC[C@@H](F)C2)c1F)c1c[nH]c2ncc(-c3cnc(C4CC4)nc3)cc12
HOP-62 NSCLC
  GI50: 5.2 µM
  TGI: 20.6 µM
MALME-3M melanoma
  GI50: < 0.01 µM
SN12C renal
  GI50: 7.66 µM
  TGI: > 100 µM
OVCAR-4 ovarian
  GI50: 11.2 µM
  TGI: 27.6 µM
ACHN renal
  GI50: 4.77 µM
  TGI: 20.7 µM
SK-MEL-28 melanoma
  GI50: < 0.01 µM
  TGI: 0.0127 µM
UACC-62 melanoma
  GI50: < 0.01 µM
  TGI: 0.0116 µM
EKVX NSCLC
  GI50: 8.14 µM
  TGI: 21.6 µM
SF-295 CNS
  GI50: 5.27 µM
  TGI: 19.8 µM
HOP-92 NSCLC
  GI50: 4.13 µM
  TGI: 25.1 µM
NCI/ADR-RES ovarian
  GI50: 19 µM
  TGI: 41.3 µM
IGROV1 ovarian
  GI50: 3.08 µM
  TGI: 13.5 µM
LOX IMVI melanoma
  GI50: 0.0301 µM
  TGI: 4.13 µM
SNB-75 CNS
  GI50: 5.65 µM
  TGI: 17.9 µM
TK-10 renal
  GI50: 11.8 µM
  TGI: 35.4 µM
COLO 205 colon
  GI50: < 0.01 µM
  TGI: 0.021 µM
HT29 colon
  GI50: 0.015 µM
  TGI: 14.5 µM
NCI-H23 lung
  GI50: 4 µM
  TGI: 15.3 µM
UO-31 renal
  GI50: 8.46 µM
  TGI: 23.5 µM
NCI-H226 lung
  GI50: 5.36 µM
  TGI: 18 µM
CAKI-1 renal
  GI50: 3.09 µM
  TGI: 9.22 µM
KM12 colon
  GI50: 6.17 µM
  TGI: 18.8 µM
OVCAR-5 ovarian
  GI50: 8.29 µM
  TGI: 27.7 µM
M14 melanoma
  GI50: < 0.01 µM
  TGI: 0.0149 µM
A498 renal
  GI50: 6.38 µM
  TGI: 24.3 µM
786-0 renal
  GI50: 5.62 µM
  TGI: 29.7 µM
HCT-15 colon
  GI50: 4.8 µM
  TGI: 20.9 µM
DU-145 prostate
  GI50: 4.58 µM
  TGI: 17.7 µM
UACC-257 melanoma
  GI50: < 0.01 µM
  TGI: 0.0246 µM
